Where two headings read alike, the source gives them in different places.
What was measured:
[1] = system: KM12 wild type colon carcinoma cell line harboring the TPM3-NTRK1 fusion protein; assay: NTRK wild type cellular assay (CellTiter-Glo growth inhibition); assay type: cell-based; details: 72 hr, CellTiter-Glo, read-out: KM12 (WT) IC50
Summary of the method: (§1)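 KM12 (TPM3-NTRK1 fusion) or KM12 Cliff (G595R) cells at 1000 cells/well in 10% FBS media were dosed with compounds at varying concentrations in duplicate after overnight plating.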

[2] = system: KM12 Cliff (G595R) cell line; assay: NTRK G595R mutant cellular assay (CellTiter-Glo growth inhibition); assay type: cell-based; details: 72 hr, CellTiter-Glo
Summary of the method: as §1

wild type NTRK1 enzyme = target: T1, wild type NTRK1 enzyme (Homo sapiens, UniProt P04629); assay: NTRK1 Wild Type Assay at 1 mM ATP; assay type: biochemical; details: 1 mM ATP; read-out: Enz NTRK1 IC50
T1 construct: purchased BPS Bioscience 40280
Experimental: NTRK1 Wild Type Assay at 1 mM ATP
The reaction was stopped by the addition of 70 μL of Stop buffer (100 mM HEPES pH 7.5, 0.015% Brij 35, 35 mM EDTA and 0.2% of Coating Reagent 3 (Caliper Lifesciences)). The plate was then read on a Caliper EZReader 2 (protocol settings: −1.7 psi, upstream voltage −500, downstream voltage −3000, post sample sip 35s).

T1 sequence (P04629 440-796 limits assumed): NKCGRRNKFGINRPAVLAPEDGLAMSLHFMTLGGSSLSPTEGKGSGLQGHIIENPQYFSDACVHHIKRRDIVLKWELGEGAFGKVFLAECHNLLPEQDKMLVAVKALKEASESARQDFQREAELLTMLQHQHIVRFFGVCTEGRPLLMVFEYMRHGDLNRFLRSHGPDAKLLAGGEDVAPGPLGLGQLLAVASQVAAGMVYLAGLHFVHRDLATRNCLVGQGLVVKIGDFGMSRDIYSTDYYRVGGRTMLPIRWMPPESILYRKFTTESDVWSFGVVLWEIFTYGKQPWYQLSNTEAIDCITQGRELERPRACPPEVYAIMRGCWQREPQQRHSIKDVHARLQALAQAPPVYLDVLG

Compound | IC50 ([1]; Homo sapiens, KM12, 72 h) | IC50 ([2]; Homo sapiens, KM12, 72 h) | IC50 (wild type NTRK1 enzyme) | IC50 [1] | IC50 [2]
O=C(c1n[nH]c2ncnc(N[C@@H]3COC[C@@H](O)[C@H]3O)c12)N1C[C@@H](F)C[C@@H]1c1cc(F)cc(F)c1 [Compound 197] | 10 to 100 nM | 10 to 100 nM | < 10 nM |  | 
O=C(c1n[nH]c2ncnc(NC3CCOCC3O)c12)N1CC(F)CC1c1cc(F)cc(Cl)c1 (stereo not drawn) [Compound 198] |  |  | < 10 nM | < 10 nM | < 10 nM
O=C(c1n[nH]c2ncnc(N[C@@H]3C=C[C@@H](O)[C@H]3O)c12)N1C[C@@H](F)C[C@@H]1c1cc(F)cc(F)c1F [Compound 199] |  |  | 10 to 100 nM | < 10 nM | < 10 nM
O=C(c1n[nH]c2ncnc(N[C@@H]3CCOC[C@H]3O)c12)N1C[C@@H](F)C[C@@H]1c1cc(Cl)ccc1F [Compound 200] | 10 to 100 nM | 10 to 100 nM | < 10 nM |  | 
O=C(c1n[nH]c2ncnc(N[C@@H]3CC[C@@H](O)[C@H]3O)c12)N1C[C@@H](F)C[C@@H]1c1cc(Cl)ccc1F [Compound 201] |  |  | < 10 nM | < 10 nM | < 10 nM
O=C(c1n[nH]c2ncnc(N[C@@H]3CCOC[C@H]3O)c12)N1C[C@@H](F)C[C@@H]1c1cc(F)cnc1Cl [Compound 202] | 10 to 100 nM | 10 to 100 nM | < 10 nM |  | 
O=C(c1n[nH]c2ncnc(N[C@@H]3C[C@@H](C(F)F)C[C@H]3O)c12)N1C[C@@H](F)C[C@@H]1c1cncc(F)c1 [Compound 203] | < 10 nM | < 10 nM | < 10 nM |  | 
O=C(c1n[nH]c2ncnc(N[C@@H]3COCC[C@H]3O)c12)N1C[C@@H](F)C[C@@H]1c1cc(F)cc(F)c1F [Compound 204] | < 10 nM | < 10 nM | < 10 nM |  | 
O=C(c1n[nH]c2ncnc(NC3CCOCC3O)c12)N1CC(F)CC1c1cc(F)cc(F)c1F (stereo not drawn) [Compound 205] |  |  | < 10 nM | < 10 nM | < 10 nM
O=C(c1n[nH]c2ncnc(N[C@@H]3CC[C@@H](O)[C@H]3O)c12)N1C[C@@H](F)C[C@@H]1c1cc(F)cc(F)c1F [Compound 206] |  |  | < 10 nM | < 10 nM | < 10 nM
O=C(c1n[nH]c2ncnc(NC3CC(F)CC3O)c12)N1CC(F)CC1c1cc(F)cnc1Cl (stereo not drawn) [Compound 207] |  |  | 10 to 100 nM | 10 to 100 nM | 10 to 100 nM
O=C(c1n[nH]c2ncnc(NC3CC(F)CC3O)c12)N1CC(F)CC1c1cc(F)cc(F)c1F (stereo not drawn) [Compound 208] | < 10 nM | < 10 nM | < 10 nM |  | 
CN(Cc1cc(F)ccc1C(F)(F)F)C(=O)c1n[nH]c2ncnc(NC3COCC(O)C3O)c12 (stereo not drawn) [Compound 209] |  |  | < 10 nM | 10 to 100 nM | 10 to 100 nM
N#C[C@H]1C[C@@H](O)[C@H](Nc2ncnc3[nH]nc(C(=O)N4C[C@@H](F)C[C@@H]4c4cc(F)cc(Cl)c4)c23)C1 [Compound 211] | < 10 nM | < 10 nM | < 10 nM |  | 
N#C[C@H]1C[C@@H](O)[C@H](Nc2ncnc3[nH]nc(C(=O)N4C[C@@H](F)C[C@@H]4c4cc(F)cc(F)c4F)c23)C1 [Compound 212] |  |  | < 10 nM | < 10 nM | < 10 nM
O=C(c1n[nH]c2ncnc(N[C@H]3[C@H](O)[C@H](O)[C@@H]4C[C@@H]43)c12)N1C[C@@H](F)C[C@@H]1c1cc(F)ccc1Cl [Compound 213] | < 10 nM | < 10 nM | < 10 nM |  | 

Compound | IC50 ([1]; Homo sapiens, KM12, 72 h) | IC50 ([2]; Homo sapiens, KM12, 72 h) | IC50 (wild type NTRK1 enzyme) | IC50 [1] | IC50 [2]
O=C(c1n[nH]c2ncnc(N[C@H]3[C@H](O)[C@H](O)[C@@H]4C[C@@H]43)c12)N1C[C@@H](F)C[C@@H]1c1cc(F)cc(Cl)c1 [Compound 214] | < 10 nM | < 10 nM | < 10 nM |  | 
O=C(c1n[nH]c2ncnc(N[C@H]3[C@H](O)[C@H](O)[C@@H]4C[C@@H]43)c12)N1C[C@@H](F)C[C@@H]1c1cc(Cl)ccc1F [Compound 215] |  |  | < 10 nM | < 10 nM | < 10 nM
O=C(c1n[nH]c2ncnc(N[C@H]3[C@H](O)[C@H](O)[C@@H]4C[C@@H]43)c12)N1C[C@@H](F)C[C@@H]1c1cc(F)cnc1F [Compound 216] |  |  | < 10 nM | < 10 nM | < 10 nM
O=C(c1n[nH]c2ncnc(NC3CCCC(O)C3O)c12)N1CC(F)CC1c1cc(F)ccc1Cl (stereo not drawn) [Compound 217] |  |  | < 10 nM | < 10 nM | < 10 nM
COc1c(F)cc(F)cc1C1CC(F)CN1C(=O)c1n[nH]c2ncnc(NC3CCOCC3O)c12 (stereo not drawn) [Compound 218] |  |  | < 10 nM | < 10 nM | < 10 nM
COc1c(F)cc(F)cc1[C@H]1C[C@H](F)CN1C(=O)c1n[nH]c2ncnc(N[C@@H]3CC[C@@H](O)[C@H]3O)c12 [Compound 219] |  |  | < 10 nM | < 10 nM | < 10 nM
O=C(c1n[nH]c2ncnc(N[C@H]3[C@H](O)[C@H](O)[C@@H]4C[C@@H]43)c12)N1C[C@@H](F)C[C@@H]1c1cc(F)cc(F)c1F [Compound 220] |  |  | < 10 nM | < 10 nM | < 10 nM
O=C(c1n[nH]c2ncnc(N[C@@H]3CCC[C@@H](O)[C@H]3O)c12)N1C[C@@H](F)C[C@@H]1c1cc(Cl)ccc1F [Compound 221] | < 10 nM | < 10 nM | < 10 nM |  | 
O=C(c1n[nH]c2ncnc(N[C@@H]3COC[C@@H](O)[C@H]3O)c12)N1C[C@@H](F)C[C@@H]1c1cc(F)ccc1Cl [Compound 222] | 10 to 100 nM | 10 to 100 nM | < 10 nM |  | 
O=C(c1n[nH]c2ncnc(NC3COCC(O)C3O)c12)N1CC(F)CC1c1cc(F)cc(Cl)c1 (stereo not drawn) [Compound 223] |  |  | < 10 nM | 10 to 100 nM | 10 to 100 nM
O=C(c1n[nH]c2ncnc(N[C@@H]3CCC[C@@H](O)[C@H]3O)c12)N1C[C@@H](F)C[C@@H]1c1cc(F)cc(F)c1F [Compound 224] | < 10 nM | < 10 nM | < 10 nM |  | 
O=C(c1n[nH]c2ncnc(NC3CCCC(F)(F)[C@H]3O)c12)N1C[C@@H](F)C[C@@H]1c1cc(F)ccc1F (stereo partly drawn) [Compound 225] |  |  | < 10 nM | 10 to 100 nM | 10 to 100 nM
O=C(c1n[nH]c2ncnc(N[C@@H]3C[C@@H](C(F)F)C[C@H]3O)c12)N1C[C@@H](F)C[C@@H]1c1cc(F)ccc1F [Compound 226, (4-(((1R,2R,4R)-4-(difluoromethyl)-2-hydroxycyclopentyl)amino)-1H-pyrazolo[3,4-d]pyrimidin-3-yl)((2R,4S)-2-(2,5-difluorophenyl)-4-fluoropyrrolidin-1-yl)methanone] | < 10 nM | < 10 nM | < 10 nM |  | 
O=C(c1n[nH]c2ncnc(N[C@@H]3CC(F)(F)[C@@H](O)[C@H]3O)c12)N1C[C@@H](F)C[C@@H]1c1cc(F)ccc1F [Compound 227] |  |  | < 10 nM | < 10 nM | < 10 nM
CN(Cc1cc(F)ccc1OC(F)(F)F)C(=O)c1n[nH]c2ncnc(NC3COCC(O)C3O)c12 (stereo not drawn) [Compound 228] |  |  | 10 to 100 nM | 10 to 100 nM | 10 to 100 nM
O=C(c1n[nH]c2ncnc(N[C@@H]3CN(C4COC4)C[C@H]3O)c12)N1C[C@@H](F)C[C@@H]1c1cc(F)ccc1F [Compound 229, ((2R,4S)-2-(2,5-difluorophenyl)-4-fluoropyrrolidin-1-yl)(4-(((3R,4R)-4-hydroxy-1-(oxetan-3-yl)pyrrolidin-3-yl)amino)-1H-pyrazolo[3,4-d]pyrimidin-3-yl)methanone] | < 10 nM | < 10 nM | < 10 nM |  | 
